One experiment relates to K562. In words: Cytotoxicity against human K562 cells assessed as reduction in cell viability by MTT assay. The experiment is classed as functional, cell-based. On the technique in general: Formazan colour is commonly taken as a measure of viable cells.
The next experiment deals with H69AR. In words: Cytotoxicity against human H69AR cells assessed as reduction in cell viability by SRB assay. The experiment is classed as functional, cell-based. Background: Sulforhodamine B stains cellular protein and so reports cell mass.
The subject of a further experiment is ASPC1. In words: Cytotoxicity against human ASPC1 cells assessed as reduction in cell viability by SRB assay. Type of experiment: functional, cell-based.
In the next experiment the test system is MDA-MB-231. In words: Cytotoxicity against human MDA-MB-231 cells assessed as reduction in cell viability by SRB assay. Type of experiment: functional, cell-based.
For another experiment, the system named is L02. As to the kind of experiment: Cytotoxicity against human L02 cells assessed as reduction in cell viability by SRB assay. Type of experiment: functional, cell-based.
A further experiment relates to Escherichia coli. As to the kind of experiment: Antibacterial activity against Escherichia coli assessed as inhibition of bacterial growth incubated for 18 to 20 hrs by agar dilution method. Type of experiment: functional. The following applies: time 18-20 hrs. On the technique in general: Agar dilution tests growth on a series of plates holding different concentrations.

The subject of a further experiment is Proteus. As to the kind of experiment: Antibacterial activity against Proteus species assessed as inhibition of bacterial growth incubated for 18 to 20 hrs by agar dilution method. The experiment is classed as functional. The note with it: time 18-20 hrs.
A further experiment deals with Bacillus cereus. As to the kind of experiment: Antibacterial activity against Bacillus cereus assessed as inhibition of bacterial growth incubated for 18 to 20 hrs by agar dilution method. The experiment is classed as functional. The note with it: time 18-20 hrs.

In brackets after ≈: the same amount, converted by molar mass. Structures can show the parent of a compound that is named as a salt.

Take `CC1=CC(=O)[C@@](C)(O)C(=O)/C1=C\Nc1ccc(C(=O)O)cc1`: the half-inhibitory concentration (IC50) in the experiment on K562 is 8.5 µM; in the experiment with H69AR, 9.6 µM; with ASPC1 it was above 30 µM; with MDA-MB-231, above 30 µM; in the experiment with L02, 16.1 µM.
On to `CC1=CC(=O)[C@@](C)(O)C(=O)/C1=C\Nc1ccc(Cl)c(Cl)c1`, for which the minimum inhibitory concentration (MIC) with Escherichia coli, with Proteus and in the experiment with Bacillus cereus was 16.3 µg/mL (≈ 50 µM) in each case.
For `CC1=CC(=O)[C@@](C)(O)C(=O)/C1=C\Nc1cccc(C(N)=O)c1`, the concentration for half-maximal inhibition (IC50) is 2.2 µM in the experiment on K562; above 30 µM in the experiment on H69AR; above 30 µM in the experiment on ASPC1; above 30 µM in the experiment on MDA-MB-231; 17 µM with L02.
Turning to `CC1=CC(=O)[C@@](C)(O)C(=O)/C1=C\Nc1ccc(F)cc1Br`, the IC50 in the experiment on K562 was 2.8 µM; in the experiment on H69AR, above 30 µM; in the experiment on ASPC1 it was above 30 µM; in the experiment on MDA-MB-231 it was above 30 µM; with L02, 20.9 µM.
Regarding `COc1cccc2c1C(=O)c1c(O)c3c(c(O)c1C2=O)C[C@@](O)(C(=O)CO)C[C@@H]3O[C@H]1C[C@H](N)[C@H](O)[C@H](C)O1` [DOXORUBICIN HYDROCHLORIDE], the concentration for half-maximal inhibition (IC50) in the experiment with H69AR came out at 15.1 µM; in the experiment with MDA-MB-231, 0.3 µM; in the experiment with L02, 0.2 µM.

What is called IC50 is the concentration that gives 50% inhibition. For orientation: MIC means the lowest concentration found to suppress growth.
